In ChEMBL document CHEMBL4330129 (Bioorg Med Chem, 2019):
Converted amounts (≈) assume the structure as drawn.

How the values were obtained:
[1] = Binding affinity to FLAG/His-tagged Keap1 (unknown origin)/biotinylated full-length FLAG/His/Tev/Avi-tagged Cul3 (unknown origin) expressed in baculovirus infected Sf9 insect cells measured after 1 hr by TR-FRET assay; parameters: species or system Homo sapiens
[2] = target: Keap1/Nrf2 (Homo sapiens, UniProt Q14145+Q16236); test: Binding affinity to FLAG/His-tagged Keap1 (unknown origin)/biotinylated full-length FLAG/His/Tev/Avi-tagged NRF2 (unknown origin) expressed in baculovirus infected Sf9 insect cells measured after 1 hr by TR-FRET assay
Chain of Keap1/Nrf2 (Q16236 whole entry): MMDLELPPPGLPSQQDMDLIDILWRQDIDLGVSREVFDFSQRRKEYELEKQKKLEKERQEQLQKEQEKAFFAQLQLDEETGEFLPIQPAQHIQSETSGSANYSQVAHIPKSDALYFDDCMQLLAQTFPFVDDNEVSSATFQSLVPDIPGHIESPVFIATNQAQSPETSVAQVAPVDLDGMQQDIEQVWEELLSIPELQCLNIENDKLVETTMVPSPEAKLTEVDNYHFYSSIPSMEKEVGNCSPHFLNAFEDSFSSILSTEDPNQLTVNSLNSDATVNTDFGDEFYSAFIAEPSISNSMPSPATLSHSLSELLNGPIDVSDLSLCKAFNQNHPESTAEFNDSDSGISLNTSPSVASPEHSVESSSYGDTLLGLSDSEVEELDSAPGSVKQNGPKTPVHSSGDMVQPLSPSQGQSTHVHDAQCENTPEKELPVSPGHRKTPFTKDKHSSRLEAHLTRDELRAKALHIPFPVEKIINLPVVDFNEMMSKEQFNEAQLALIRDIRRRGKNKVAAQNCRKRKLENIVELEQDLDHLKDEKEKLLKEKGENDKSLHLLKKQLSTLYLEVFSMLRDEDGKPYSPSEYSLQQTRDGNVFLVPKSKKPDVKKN
Chain of Keap1/Nrf2 (Q14145 whole entry): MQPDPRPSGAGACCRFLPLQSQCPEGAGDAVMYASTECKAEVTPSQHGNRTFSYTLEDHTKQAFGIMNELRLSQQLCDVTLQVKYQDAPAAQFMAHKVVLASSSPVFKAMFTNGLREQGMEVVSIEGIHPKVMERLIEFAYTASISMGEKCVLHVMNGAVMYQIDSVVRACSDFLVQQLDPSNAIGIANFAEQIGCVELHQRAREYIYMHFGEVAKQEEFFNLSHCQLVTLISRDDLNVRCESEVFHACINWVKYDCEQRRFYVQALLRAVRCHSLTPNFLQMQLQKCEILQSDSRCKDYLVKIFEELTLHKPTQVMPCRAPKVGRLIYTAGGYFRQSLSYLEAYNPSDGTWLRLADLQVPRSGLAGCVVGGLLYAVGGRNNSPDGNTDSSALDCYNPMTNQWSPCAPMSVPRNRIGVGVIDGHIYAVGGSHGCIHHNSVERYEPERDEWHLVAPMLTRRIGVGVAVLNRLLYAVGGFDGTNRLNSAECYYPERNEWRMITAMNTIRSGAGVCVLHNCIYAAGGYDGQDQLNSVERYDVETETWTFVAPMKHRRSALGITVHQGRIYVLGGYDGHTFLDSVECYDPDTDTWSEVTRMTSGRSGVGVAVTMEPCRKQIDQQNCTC

[3] = species on record: Homo sapiens; test: Activation of Keap1/Cul3/Nrf2 in NHBE cells assessed as induction of HO-1 gene expression at 10 uM after 24 hrs by RT-PCR analysis relative to SFN; type: cell-based
[4] = Kinetic solubility of the compound at pH 7.4 by CLND method; type: physicochemical; details: buffer, read-out: Kinetic_solubility
[5] = Lipophilicity, log D of the compound at pH 7.4 by chromatographic method; type: physicochemical; details: buffer

Row | Structure (SMILES) | pIC50 [1] | IC50 [2] | fold change (FC) [3] | solubility kinetic [4] | chromatographic logD [5]
1 | C[S+]([O-])CCCCNC(=S)SCCNC(=O)OC(C)(C)C (stereo not drawn) | < 4 | > 100 µM | 0.58 | ≥ 432 µM | 3.12
2 | Cl.O=C(NCCCCNC(=S)SC1CCNCC1)NC1CCCC1 | 4.6 | 50.1 µM | 3.46 | ≥ 323 µM | 1.52
3 | CC(C)(C)OC(=O)N1CCC(SC(=O)NCCCCNC(=S)SC2CCN(C(=O)OC(C)(C)C)CC2)CC1 | < 4 | > 100 µM | 4.08 | 9 µM (≈ 5.32 µg/mL) | 7.89
4 | O=C(NCCCCN=C=S)NCc1ccccc1 | 4.7 | 15.8 µM | 6.42 | 247 µM (≈ 65.1 µg/mL) | 4.29
5 | COC(=O)C(C[S+]([O-])CCCCN=C=S)NC(C)=O (stereo not drawn) | < 4 | > 100 µM | 0.11 | 279 µM (≈ 85.5 µg/mL) | 1.61
6 | CNC(=O)NCCCCNC(=S)SC1CCN(C(=O)OC(C)(C)C)CC1 | < 4 | > 100 µM | 0.59 | ≥ 377 µM | 4.58
7 | C[S+]([O-])CCCN=C=S (stereo not drawn) | < 4 | > 100 µM | 0.47 | 331 µM (≈ 54 µg/mL) | 0.85
8 | CN1CCC(SC(=S)NCCCCNC(=O)CC2CCCCC2)CC1 | 5 | 15.8 µM | 11.5 | – | 3.28
9 | CN(C)CCC[S+]([O-])CCCCN=C=S (stereo not drawn) | < 4 | > 100 µM | 0.27 | ≥ 250 µM | 0.81
10 | C[S+]([O-])CCCCNC(=S)SCc1cccc([N+](=O)[O-])c1 (stereo not drawn) | < 4 | > 100 µM | 0.39 | 372 µM (≈ 129 µg/mL) | 3.81
11 | CSc1c(N(C)CCCC[S+](C)[O-])c(=O)c1=O (stereo not drawn) | – | – | 0.14 | – | –
12 | CS(=O)(=O)N1CCC(CCN=C=S)C1 (stereo not drawn) | 4.3 | > 100 µM | 4.27 | 288 µM (≈ 67.5 µg/mL) | 3.87
13 | CN1CCC(SC(=S)NCCCCNC(=O)Nc2ccc3nccnc3c2)CC1 | 5.1 | 10 µM | 102 | ≥ 400 µM | 1.52
14 | O=C(NCCCCN=C=S)Nc1ccncc1 | 4.7 | 31.6 µM | 15.3 | 400 µM (≈ 100 µg/mL) | 2.6
15 | CN(C)CCCS(=O)(=O)CCCCN=C=S | < 4 | > 100 µM | 0.34 | 210 µM (≈ 55.5 µg/mL) | 1.55
16 | CCCCNCCSC(=S)NCCCC[S+](C)[O-] (stereo not drawn) | < 4 | > 100 µM | 0.08 | ≥ 420 µM | 4.34
17 | CC(C)(C)OC(=O)N1CCC(SC(=S)NCCCCNC(=O)Nc2ccc3ncsc3c2)CC1 | 4.7 | 31.6 µM | 18.3 | – | 5.45
18 | CN1CCC(SC(=S)NCCCCS(=O)(=O)c2ccncc2)CC1 | 4.5 | 100 µM | 2 | ≥ 419 µM | 1.56
19 | O=S1(=O)CCN(CCN=C=S)CC1 | < 4 | > 100 µM | 0.19 | ≥ 274 µM | 2.33

Row | Structure (SMILES) | pIC50 [1] | IC50 [2] | fold change (FC) [3] | solubility kinetic [4] | chromatographic logD [5]
20 | CN1CCC(SC(=S)NCCCCNC(=O)CC2CCCC2)CC1 | 4.5 | 50.1 µM | 31.3 | ≥ 256 µM | 3
21 | [O-][S+](CCCCN=C=S)c1ccncc1 (stereo not drawn) | 4.4 | 15.8 to 25.1 µM | 15.8 to 15.9 | 201 to 224 µM (≈ 48.3 to 53.8 µg/mL) | 2.34 to 3.5
22 | CN(C)C(=O)/C=C/CCCCCS(C)(=O)=O | – | – | 0.13 | – | –
23 | O=S(=O)(CC1(N2CCC(CN=C=S)C2)COC1)c1ccccc1 (stereo not drawn) | 4.7 | 50.1 µM | 8.15 | 242 µM (≈ 85.3 µg/mL) | 5.02
24 | O=C(NCCCCN=C=S)Nc1cccnc1 | 4.5 | 39.8 µM | 13.6 | ≥ 428 µM | 2.79
25 | O=S(=O)(CCCCN=C=S)CCN1CCOCC1 | < 4 | > 100 µM | 0.22 | 273 µM (≈ 79.8 µg/mL) | 2.93
26 | O=S(=O)(/C=C(\CO)CN1CCC(CN=C=S)CC1)c1ccccc1 | 5.6 | 25.1 µM | 25.3 | 187 µM (≈ 68.5 µg/mL) | 7.09
27 | O=C(NCCCCN=C=S)OCc1ccccc1 | 5.1 | 12.6 µM | 0.63 | – | –
28 | O=C(CC1CCCCC1)NCCCCN=C=S | 4.8 | 25.1 µM | 11.5 | ≥ 413 µM | –
29 | O=C(O)C(F)(F)F.[O-][S+](CCCCN=C=S)CCN1CCOCC1 (stereo not drawn) | < 4 | > 100 µM | 0.16 | 81 µM | 1.91
30 | Cc1ccccc1S(=O)(=O)CCCCN=C=S | 5 | 31.6 µM | 0.67 | 261 µM (≈ 70.3 µg/mL) | 5.52
31 | O=C(NCCCCN=C=S)Nc1ccc2nccnc2c1 | 5.1 | 15.8 µM | 13.2 | ≥ 356 µM | 3.13
32 | Cc1ccccc1[S+]([O-])CCCCN=C=S (stereo not drawn) | 4.6 | 63.1 µM | 1.3 | 362 µM (≈ 91.7 µg/mL) | 4.69
33 | CC(=O)CCCCN=C=S | 4.1 | > 100 µM | 0.9 | 206 µM (≈ 32.4 µg/mL) | 4.21
34 | CC(C)(C)OC(=O)N1CCC(SC(=S)NCCCCNC(=O)NC2CCCC2)CC1 | 4.4 | > 100 µM | 27.3 | 53 µM (≈ 24.3 µg/mL) | 6.1
35 | CN1CCC(SC(=S)NCCCC[S+](C)[O-])CC1 (stereo not drawn) | < 4 | > 100 µM | 0.93 | ≥ 536 µM | 0.81
36 | O=S(=O)(CC1(N2CCC(CN=C=S)CC2)COC1)c1ccccc1 | 4.7 | 39.8 µM | 2.98 | 341 µM (≈ 125 µg/mL) | 5.41
37 | O=C(NCCCCN=C=S)Nc1ccc2scnc2c1 | 5.2 | 5.01 µM | 3.75 | – | 3.77
38 | CC(=O)N(C)CC[S+]([O-])CCCCN=C=S (stereo not drawn) | < 4 | > 100 µM | 0.29 | ≥ 110 µM | 1.51

Row | Structure (SMILES) | pIC50 [1] | IC50 [2] | fold change (FC) [3] | solubility kinetic [4] | chromatographic logD [5]
39 | O=C(NCCCCN=C=S)NC1CCCC1 | 4.4 | 50.1 µM | 2.66 | 419 µM (≈ 101 µg/mL) | 4.1
40 | CC[S+]([O-])C(=O)N(CCCC[S+](C)[O-])Cc1ccccc1 (stereo not drawn) | – | – | 0.27 | – | –
41 | O=C(CCc1ccccc1)NCCCCN=C=S | 4.4 | 25.1 µM | 9.84 | 337 µM (≈ 88.4 µg/mL) | 2.59
42 | CN1CCC(SC(=S)NCCCCNC(=O)OCc2ccccn2)CC1 | 4.6 | 39.8 µM | 11.4 | ≥ 385 µM | 1.83
43 | C[S+]([O-])CCCCNC(=S)SC1CCNCC1.O=C(O)C(F)(F)F (stereo not drawn) | < 4 | > 100 µM | 0.34 | 255 µM | 0.22
44 | C[S+]([O-])CCCCCCN=C=S (stereo not drawn) | – | > 100 µM | – | ≥ 324 µM | 0.9
45 | COCCOC(=O)NCCCCN=C=S | < 4 | > 100 µM | 0.17 | 1 µM (≈ 0.232 µg/mL) | –
46 | CN(C)C(=O)/C(C#N)=C/CCCCC[S+](C)[O-] (stereo not drawn) | – | – | 0.33 | – | –
47 | O=C(NCCCN=C=S)OCc1ccccc1 | 5 | 5.01 µM | 32.2 | – | –
48 | CNC(=O)CCCCN=C=S | 4.1 | > 100 µM | 0.7 | – | –
49 | CN(C)C(=O)CCCCN=C=S | 4.2 | > 100 µM | 0.71 | – | –
50 | CN1CCC(SC(=S)NCCCCNC(=O)Nc2ccc3c(c2)OCCO3)CC1 | 5 | 12.6 µM | 23.6 | – | 2.24
51 | CN(C)C(=O)/C(C#N)=C/CCCCCS(C)(=O)=O | – | – | 0.18 | – | –
52 | O=C(NCCCCN=C=S)C1CCCCC1 | 4.4 | 50.1 µM | 1.13 | 369 µM (≈ 88.7 µg/mL) | –
53 | CC(=O)NCCCCN=C=S | 4.2 | > 100 µM | 0.54 | – | –
54 | CN1CCC(SC(=S)NCCCCNC(=O)Nc2ccc3ncsc3c2)CC1 | 5.4 | 7.94 µM | 25.5 | – | 1.91
55 | CN(C)C(=O)/C=C/CCCCC[S+](C)[O-] (stereo not drawn) | – | – | 0.11 | – | –
56 | CC(=O)NCCSC(=S)NCCCC[S+](C)[O-] (stereo not drawn) | – | > 100 µM | – | ≥ 531 µM | 0.58
57 | CC(C)(C)OC(=O)N1CCC(SC(=S)NCCCCNC(=O)Nc2ccc3c(c2)OCCO3)CC1 | 4.4 | 31.6 µM | 74.8 | – | 5.79
